Reference: patent publication US20240423207A1, “PICOLINAMIDE COMPOUNDS WITH FUNGICIDAL ACTIVITY” (CORTEVA AGRISCIENCE LLC, priority 2014, published 2024)
Where two headings read alike, the source gives them in different places.

Columns and labels:
[1] = system: Mycosphaerella graminicola; Anamorph: Septoria tritici; test: Leaf Blotch of Wheat (SEPTTR) fungicidal activity on wheat seedlings; format: in vivo; settings: Zymoseptoria tritici; for pest or weed control at 121.5 g/ha: Low Volume, 121.5 g/H
Method: Example A: Evaluation of Fungicidal Activity: Leaf Blotch of Wheat (Mycosphaerella graminicola; Anamorph: Septoria tritici; Bayer code […]): Technical grades of materials were dissolved in acetone, which were then mixed with nine volumes of water (H2O) containing 110 ppm Triton X-100. The fungicide solutions were applied onto wheat seedlings using an automated booth sprayer to run-off. All sprayed plants were allowed to air dry prior to further handling. All fungicides were evaluated using the aforementioned method for their activity vs. all target diseases, unless stated otherwise. Wheat leaf blotch and brown rust activity were also evaluated using track spray applications, in which case the fungicides were formulated as EC formulations, containing 0.1% Trycol 5941 in the spray solutions. Wheat plants (variety Yuma) were grown from seed in a greenhouse in 50% mineral soil/50% soil-less Metro mix until the first leaf was fully emerged, with 7-10 seedlings per pot. These plants were inoculated with an aqueous spore suspension of Septoria tritici either prior to or after fungicide treatments. After inoculation the plants were kept in 100% relative humidity (one day in a dark dew chamber followed by two to three days in a lighted dew chamber at 20° C.) to permit spores to germinate and infect the leaf. The plants were then transferred to a greenhouse set at 20° C. for disease to develop. When disease symptoms were fully expressed on the 1st leaves of untreated plants, infection levels were assessed on a scale of 0 to 100 percent disease severity. Percent disease control was calculated using the ratio of disease severity on treated plants relative to untreated plants.

[2] = system: Puccinia triticina; Synonym: Puccinia recondita f sp. tritici; test: Wheat Brown Rust (PUCCRT) fungicidal activity on wheat seedlings; format: in vivo; settings: for pest or weed control at 121.5 g/ha: Low Volume, 121.5 g/H; for pest or weed control at 100 ppm: High Volume
Method: Technical grades of materials were dissolved in acetone, which were then mixed with nine volumes of water (H2O) containing 110 ppm Triton X-100. The fungicide solutions were applied onto wheat seedlings using an automated booth sprayer to run-off. All sprayed plants were allowed to air dry prior to further handling. All fungicides were evaluated using the aforementioned method for their activity vs. all target diseases, unless stated otherwise. Wheat leaf blotch and brown rust activity were also evaluated using track spray applications, in which case the fungicides were formulated as EC formulations, containing 0.1% Trycol 5941 in the spray solutions. Wheat plants (variety Yuma) were grown from seed in a greenhouse in 50% mineral soil/50% soil-less Metro mix until the first leaf was fully emerged, with 7-10 seedlings per pot. These plants were inoculated with an aqueous spore suspension of Septoria tritici either prior to or after fungicide treatments. After inoculation the plants were kept in 100% relative humidity (one day in a dark dew chamber followed by two to three days in a lighted dew chamber at 20° C.) to permit spores to germinate and infect the leaf. The plants were then transferred to a greenhouse set at 20° C. for disease to develop. When disease symptoms were fully expressed on the 1st leaves of untreated plants, infection levels were assessed on a scale of 0 to 100 percent disease severity. Percent disease control was calculated using the ratio of disease severity on treated plants relative to untreated plants. Example B: Evaluation of Fungicidal Activity: Wheat Brown Rust (Puccinia triticina; Synonym: Puccinia recondita f sp. tritici; Bayer code PUCCRT): Wheat plants (variety Yuma) were grown from seed in a greenhouse in 50% mineral soil/50% soil-less Metro mix until the first leaf was fully emerged, with 7-10 seedlings per pot. These plants were inoculated with an aqueous spore suspension of Puccinia triticina either prior to or after fungicide treatments. After inoculation the plants were kept in a dark dew room at 22° C. with 100% relative humidity overnight to permit spores to germinate and infect the leaf. The plants were then transferred to a greenhouse set at 24° C. for disease to develop. Fungicide formulation, application and disease assessment followed the procedures as described in the Example A.

[3] = 24 h, 1 Day Protectant, read-out: SEPTTR 1DP disease control
[4] = 72 h, 3 Day Curative, read-out: SEPTTR 3DC disease control
[5] = 24 h, 1 Day Protectant, read-out: PUCCRT 1DP disease control
[6] = 72 h, 3 Day Curative, read-out: PUCCRT 3DC disease control
[7] = 24 h, High Volume, 100 ppm, 1 Day Protectant, read-out: SEPTTR 1DP disease control
[8] = 72 h, High Volume, 100 ppm, 3 Day Curative, read-out: SEPTTR 3DC disease control

SMILES | pest or weed control at 121.5 g/ha [1, 3] | pest or weed control at 121.5 g/ha [1, 4] | pest or weed control at 121.5 g/ha [2, 5] | pest or weed control at 121.5 g/ha [2, 6] | further results
COc1ccnc(C(=O)N[C@@H](C)C(=O)O[C@@H](C)C(c2cccc(F)c2)c2cccc(F)c2)c1OC(C)=O [Cmpd 156] | > 80% | > 80% | > 80% | > 80% | –
C#Cc1ccc(C(c2ccc(C#C)cc2)[C@H](C)OC(=O)[C@H](C)NC(=O)c2nccc(OC)c2OCOC(C)=O)cc1 [Cmpd 197] | > 80% | > 80% | > 80% | > 80% | –
CC(=O)OCOc1cccnc1C(=O)N[C@@H](C)C(=O)O[C@@H](C)C(c1ccc(F)cc1)c1ccc(F)cc1 [Cmpd 178] | > 80% | > 80% | < 80% | – | –
COc1ccnc(C(=O)N[C@@H](C)C(=O)O[C@@H](C)C(O)(c2ccc(Cl)c(Cl)c2)c2ccc(Cl)c(Cl)c2)c1OCOC(C)=O [Cmpd 201] | > 80% | > 80% | < 80% | – | –
COc1ccnc(C(=O)N[C@@H](C)C(=O)O[C@@H](C)C(c2ccc(C)s2)c2ccc(C)s2)c1OCOC(C)=O [Cmpd 170] | < 80% | < 80% | < 80% | < 80% | –
COc1ccnc(C(=O)N[C@@H](C)C(=O)O[C@@H](C)C(F)(c2ccccc2)c2ccccc2)c1O [Cmpd 97] | – | – | – | – | pest or weed control at 100 ppm [1, 7]: > 80%; pest or weed control at 100 ppm [1, 8]: > 80%; pest or weed control at 100 ppm [2, 5]: < 80%
CCOc1ccnc(C(=O)N[C@@H](C)C(=O)O[C@@H](C)C(c2ccc(F)cc2)c2ccc(F)cc2)c1OCOC(C)=O [Cmpd 179] | > 80% | > 80% | < 80% | – | –
COc1ccnc(C(=O)N[C@@H](C)C(=O)O[C@@H](C)C(O)(c2ccc(Cl)c(Cl)c2)c2ccc(Cl)c(Cl)c2)c1O [Cmpd 127] | – | – | – | – | pest or weed control at 100 ppm [1, 7]: < 80%; pest or weed control at 100 ppm [2, 5]: < 80%
COc1ccnc(C(=O)NCC(=O)O[C@@H](C)C(c2ccc(F)cc2)c2ccc(F)cc2)c1OCOC(C)=O [Cmpd 183] | > 80% | < 80% | > 80% | > 80% | –
COc1ccnc(C(=O)N[C@@H](C)C(=O)O[C@@H](C)C(c2ccccc2)c2ccccc2)c1O [Cmpd 90, (S)-(S)-1,1-diphenylpropan-2-yl 2-(3-hydroxy-4-methoxypicolinamido)propanoate] | – | – | – | – | pest or weed control at 100 ppm ([1]; 24 h, read-out: SEPTTR 1DP disease control): > 80%; pest or weed control at 100 ppm ([1]; 72 h, read-out: SEPTTR 3DC disease control): > 80%; pest or weed control at 100 ppm [2, 5]: > 80%; pest or weed control at 100 ppm [2, 6]: > 80%
COc1ccnc(C(=O)N[C@@H](C)C(=O)O[C@@H](C)[C@@H](c2ccccc2)c2ccc(F)cc2)c1OCOC(C)=O [Cmpd 199] | > 80% | > 80% | > 80% | > 80% | –
COc1ccnc(C(=O)N[C@@H](C)C(=O)O[C@@H](C)C(c2cccs2)c2cccs2)c1OC(C)=O [Cmpd 143] | – | < 80% | < 80% | – | –
COc1ccnc(C(=O)N[C@@H](C)C(=O)O[C@@H](C)C(c2ccc(F)c(F)c2)c2ccc(F)c(F)c2)c1OCOC(C)=O [Cmpd 218] | > 80% | > 80% | > 80% | < 80% | –
COc1ccnc(C(=O)N[C@@H](C)C(=O)O[C@@H](C)C(c2ccc(F)c(Cl)c2)c2ccc(F)c(Cl)c2)c1O [Cmpd 132] | – | – | – | – | pest or weed control at 100 ppm [1, 7]: > 80%; pest or weed control at 100 ppm [1, 8]: > 80%; pest or weed control at 100 ppm [2, 5]: > 80%; pest or weed control at 100 ppm [2, 6]: < 80%
COc1ccnc(C(=O)N[C@@H](C)C(=O)O[C@@H](C)C(c2ccc(C)s2)c2ccc(C)s2)c1O [Cmpd 104] | – | – | – | – | pest or weed control at 100 ppm [1, 7]: < 80%; pest or weed control at 100 ppm [1, 8]: > 80%; pest or weed control at 100 ppm [2, 5]: > 80%
COc1ccnc(C(=O)N[C@@H](C)C(=O)O[C@@H](C)C(c2ccc(Br)cc2)c2ccc(Br)cc2)c1OC(C)=O [Cmpd 165] | > 80% | > 80% | > 80% | < 80% | –
COc1ccnc(C(=O)N[C@@H](CC(C)C)C(=O)O[C@@H](C)C(c2ccc(F)cc2)c2ccc(F)cc2)c1OC(C)=O [Cmpd 190] | < 80% | < 80% | < 80% | – | –
COc1ccnc(C(=O)N[C@@H](C)C(=O)O[C@@H](C)[C@@H](c2ccccc2)c2ccc(F)cc2)c1OC(C)=O [Cmpd 204] | > 80% | > 80% | > 80% | > 80% | –
COc1ccnc(C(=O)N[C@@H](C)C(=O)O[C@@H](C)C(c2ccc(C)cc2)c2ccc(C)cc2)c1O [Cmpd 105] | – | – | – | – | pest or weed control at 100 ppm [1, 7]: > 80%; pest or weed control at 100 ppm [1, 8]: > 80%; pest or weed control at 100 ppm [2, 5]: > 80%; pest or weed control at 100 ppm [2, 6]: > 80%
COc1ccnc(C(=O)N[C@@H](C)C(=O)O[C@@H](C)C(c2ccc(-c3ccccc3)cc2)c2ccc(-c3ccccc3)cc2)c1OC(C)=O [Cmpd 182] | – | < 80% | – | < 80% | –
COc1ccnc(C(=O)N[C@@H](C)C(=O)O[C@@H](C)C(c2ccc(C)c(F)c2)c2ccc(C)c(F)c2)c1O [Cmpd 120] | – | – | – | – | pest or weed control at 100 ppm [1, 7]: > 80%; pest or weed control at 100 ppm [1, 8]: > 80%; pest or weed control at 100 ppm [2, 5]: > 80%; pest or weed control at 100 ppm [2, 6]: < 80%
COc1ccnc(C(=O)N[C@@H](C)C(=O)O[C@@H](C)C(c2ccc(F)c(Cl)c2)c2ccc(F)c(Cl)c2)c1OCOC(C)=O [Cmpd 219] | > 80% | > 80% | > 80% | – | –
COc1ccnc(C(=O)N[C@@H](C)C(=O)O[C@@H](C)C(c2ccc(F)c(C)c2)c2ccc(F)c(C)c2)c1OCOC(C)=O [Cmpd 220] | > 80% | > 80% | > 80% | < 80% | –
COc1ccnc(C(=O)N[C@@H](C)C(=O)O[C@@H](C)C(F)(c2ccccc2)c2ccccc2)c1OC(C)=O [Cmpd 152] | > 80% | > 80% | < 80% | < 80% | –
COc1ccnc(C(=O)NCC(=O)O[C@@H](C)C(c2ccc(F)cc2)c2ccc(F)cc2)c1OC(C)=O [Cmpd 187] | < 80% | < 80% | > 80% | < 80% | –
COc1ccnc(C(=O)N[C@@H](CC(C)C)C(=O)O[C@@H](C)C(c2ccc(F)cc2)c2ccc(F)cc2)c1O [Cmpd 116] | – | – | – | – | pest or weed control at 100 ppm [1, 7]: < 80%; pest or weed control at 100 ppm [1, 8]: < 80%; pest or weed control at 100 ppm [2, 5]: < 80%
COc1ccnc(C(=O)N[C@H](C(=O)O[C@@H](C)C(c2ccc(F)cc2)c2ccc(F)cc2)C(C)C)c1OCOC(C)=O [Cmpd 185] | > 80% | > 80% | > 80% | < 80% | –
